# Laboratory results from patent publication US12428406B2 (PMV Pharmaceuticals, Inc., priority 2019, dated 2025).
# Biological target: T1, p53 Y220C (Homo sapiens, UniProt P04637, Y220C)
# T1 construct: The recombinant protein was a truncation mutant containing only amino acids 94-312 of p53; made in house; host or cells: E. coli
# Assay: In vitro DNA binding activity assay (HTRF / TR-FRET): stabilization of p53 Y220C and increase of its DNA binding activity
# Type: biochemical
# Conditions: recombinant His-tagged p53 Y220C DNA binding domain (aa 94-312), biotin-labeled consensus DNA, incubated at 27° C. or 29° C. for 60 min
# How it was run: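 Compound effect on DNA binding of recombinant His-p53 Y220C (E. coli) to biotin-labeled consensus DNA, expressed as SC150, the concentration giving 50% increase versus untreated. Serial 3-fold DMSO dilutions of 4.5 mM stocks; room-temperature steps of 15 then 20 min.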
# T1 sequence (P04637 94-312, change not shown): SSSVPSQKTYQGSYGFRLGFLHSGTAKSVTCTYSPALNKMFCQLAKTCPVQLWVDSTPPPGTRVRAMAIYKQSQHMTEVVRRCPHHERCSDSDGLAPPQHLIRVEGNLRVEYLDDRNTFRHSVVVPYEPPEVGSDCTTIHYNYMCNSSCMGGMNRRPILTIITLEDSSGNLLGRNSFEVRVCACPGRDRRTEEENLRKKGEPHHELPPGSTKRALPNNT
row,SMILES,SC150 (concentration of the compound required to increase the DNA binding activity by 50%)
1,"COc1cc(S(N)(=O)=O)ccc1NCC#Cc1cc2c(NC3CCN(C[C@@H](CO)OC)CC3)cccc2n1CC(F)(F)F [Compound 632A, 4-({3-[4-({l-[(2S)-3-hydroxy-2-methoxypropyl]piperidin-4-yl}amino)-1-(2,2,2-trifluoroethyl)-1H-indol-2-yl]prop-2-yn-1-yl}amino)-3-methoxybenzene-1-sulfonamide]",+ (+ = 0 μM ≤ SC150 < 0.05 μM)
2,"COc1cc(S(C)(=O)=O)ccc1NCC#Cc1cc2c(N[C@@H]3C[C@@H](C)O[C@@H](C)C3)cccc2n1CC(F)(F)F [Compound 1028A, 2-{3-[(4-methanesulfonyl-2-methoxyphenyl)amino]prop-1-yn-1-yl}-N-[(2R,4S,6S)-2,6-dimethyloxan-4-yl]-1-(2,2,2-trifluoroethyl)-1H-indol-4-amine]",+++ (+++ = 0.1 μM ≤ SC150 < 0.2 μM)
3,"CNC(=O)c1ccc(NCC#Cc2cc3c(N[C@H]4CC[C@H](N5CCC(S(C)(=O)=O)CC5)CC4)cccc3n2CC(F)(F)F)c(OC)c1 [Compound 444A, 3-methoxy-N-methyl-4-{[3-(4-{[(1R,4R)-4-(4-methane-sulfonylpiperidin-1-yl)cyclohexyl]amino}-1-(2,2,2-trifluoroethyl)-1H-indol-2-yl)prop-2-yn-1-yl]amino}benzamide]",+ (+ = 0 μM ≤ SC150 < 0.05 μM)
4,"COc1cc(S(C)(=O)=O)ccc1NCC#Cc1cc2c(NC3CCN(CC(C)OC(=O)C(C)C)CC3)cccc2n1CC(F)(F)F (racemic) [Compound 591A, 1-{4-[(2-{3-[(4-methanesulfonyl-2-methoxyphenyl)amino]prop-1-yn-1-yl}-1-(2,2,2-trifluoroethyl)-1H-indol-4-yl)amino]piperidin-1-yl}propan-2-yl 2-methylpropanoate]",+ (+ = 0 μM ≤ SC150 < 0.05 μM)
5,"COc1cc(C(N)=O)ccc1NCC#Cc1cc2c(N[C@H]3CC[C@H](N4CC5(CCCOC5)C4)CC3)cccc2n1CC(F)(F)F [Compound 333A, 3-methoxy-4-{[3-(4-{[(1R,4R)-4-{6-oxa-2-azaspiro[3.5]nonan-2-yl}cyclohexyl]amino}-1-(2,2,2-trifluoroethyl)-1H-indol-2-yl)prop-2-yn-1-yl]amino}benzamide]",+ (+ = 0 μM ≤ SC150 < 0.05 μM)
6,"CNC(=O)c1ccc(NCC#Cc2cc3c(NC4CCC(N5CC6(COC6)C5)CC4)cccc3n2CC(F)(F)F)c(OCCC#N)c1 [Compound 255A, 3-(2-cyanoethoxy)-N-methyl-4-{[3-(4-{[(1R,4R)-4-{2-oxa-6-azaspiro[3.3]heptan-6-yl}cyclohexyl]amino}-1-(2,2,2-trifluoroethyl)-1H-indol-2-yl)prop-2-yn-1-yl]amino}benzamide]",+ (+ = 0 μM ≤ SC150 < 0.05 μM)
7,"COc1cc(C#N)ccc1NCC#Cc1cc2c(NC3CCC(N4CC5(COC5)C4)CC3)cccc2n1CC(F)(F)F (stereo not shown) [Compound 249A, 3-methoxy-4-[(3-{4-[(4-{2-oxa-6-azaspiro[3.3]heptan-6-yl}cyclohexyl)amino]-1-(2,2,2-trifluoroethyl)-1H-indol-2-yl}prop-2-yn-1-yl)amino]benzonitrile]",+ (+ = 0 μM ≤ SC150 < 0.05 μM)
8,"CS(=O)(=O)c1ccc(NCC#Cc2cc3c(NC4CCC(N5CCOCC5)CC4)cccc3n2CC(F)(F)F)c(OCF)c1 [Compound 340A, 2-(3-{[2-(fluoro-methoxy)-4-methane-sulfonylphenyl]amino}prop-1-yn-1-yl)-N-[(1R,4R)-4-(morpholin-4-yl)cyclohexyl]-1-(2,2,2-trifluoroethyl)-1H-indol-4-amine]",+ (+ = 0 μM ≤ SC150 < 0.05 μM)
9,"COc1cc(S(C)(=O)=O)ccc1NCC#Cc1cc2c(N[C@@H]3CCN(CC(C)O)C[C@@H]3F)cccc2n1CC(F)(F)F (mixture of isomers) [Compound 871A, 1-[(3S,4R)-3-fluoro-4-[(2-{3-[(4-methanesulfonyl-2-methoxyphenyl)amino]prop-1-yn-1-yl}-1-(2,2,2-trifluoroethyl)-1H-indol-4-yl)amino]piperidin-1-yl]propan-2-ol]",+ (+ = 0 μM ≤ SC150 < 0.05 μM)
10,COc1cc(C(=O)O)ccc1NCC#Cc1cc2c(N[C@@H]3CCNC[C@@H]3F)cccc2n1CC(F)(F)F [Compound 858A],+ (+ = 0 μM ≤ SC150 < 0.05 μM)
11,CCC(=O)N1CCC(Nc2cccc3c2cc(C#CCNc2ccc(S(C)(=O)=O)cc2OC)n3CC(F)(F)F)CC1 [Compound 756A],+ (+ = 0 μM ≤ SC150 < 0.05 μM)
12,"COc1cc(S(=O)(=O)N(C)CCO)ccc1NCC#Cc1cc2c(NC3CCN(CC(O)CO)CC3)cccc2n1CC(F)(F)F (stereo not shown) [Compound 553A, 4-{[3-(4-{[1-(2,3-dihydroxypropyl)piperidin-4-yl]amino}-1-(2,2,2-trifluoroethyl)-1H-indol-2-yl)prop-2-yn-1-yl]amino}-N-(2-hydroxyethyl)-3-methoxy-N-methylbenzene-1-sulfonamide]",+ (+ = 0 μM ≤ SC150 < 0.05 μM)
13,"COc1cc(C(N)=O)ccc1NCC#Cc1cc2c(N[C@H]3CCN(C)C[C@H]3F)cccc2n1CC(F)(F)F (racemic) [Compound 782A, rac-4-{[3-(4-{[(3R,4S)-3-fluoro-1-methylpiperidin-4-yl]amino}-1-(2,2,2-trifluoroethyl)-1H-indol-2-yl)prop-2-yn-1-yl]amino}-3-methoxybenzamide]",+ (+ = 0 μM ≤ SC150 < 0.05 μM)
14,"CCN1CC[C@@H](Nc2cccc3c2cc(C#CCNc2ccc(C(=O)O)cc2OC)n3CC(F)(F)F)[C@@H](F)C1 [Compound 829A, 4-{[3-(4-{[(3S,4R)-1-ethyl-3-fluoropiperidin-4-yl]amino}-1-(2,2,2-trifluoroethyl)-1H-indol-2-yl)prop-2-yn-1-yl]amino}-3-methoxybenzoic acid]",+ (+ = 0 μM ≤ SC150 < 0.05 μM)
15,"COc1cc(-c2ncco2)ccc1NCC#Cc1cc2c(NC3CCN(C)CC3)cccc2n1CC(F)(F)F [Compound 506A, 2-(3-{[2-methoxy-4-(1,3-oxazol-2-yl)phenyl]amino}prop-1-yn-1-yl)-N-(1-methylpiperidin-4-yl)-1-(2,2,2-trifluoroethyl)-1H-indol-4-amine]",+ (+ = 0 μM ≤ SC150 < 0.05 μM)
16,"COc1cc(S(=O)(=O)Nc2ccon2)ccc1NCC#Cc1cc2c(NC3CCN(C)CC3)cccc2n1CC(F)(F)F [Compound 469A, 3-methoxy-4-[(3-{4-[(1-methylpiperidin-4-yl)amino]-1-(2,2,2-trifluoroethyl)-1H-indol-2-yl}prop-2-yn-1-yl)amino]-N-(1,2-oxazol-3-yl)benzene-1-sulfonamide]",+ (+ = 0 μM ≤ SC150 < 0.05 μM)
17,CCOC(=O)c1ccc(NCC#Cc2cc3c(N[C@H]4CCN(CC)C[C@H]4F)cccc3n2CC(F)(F)F)c(OC)c1 [Compound 824A],+ (+ = 0 μM ≤ SC150 < 0.05 μM)
18,"CN1CC[C@@H](Nc2cccc3c2cc(C#CCNC(=O)c2ccn(C(C)(C)C)c2)n3CC(F)(F)F)[C@@H](F)C1 [Compound 955A, 1-tert-butyl-N-[3-(4-{[(3S,4R)-3-fluoro-1-methylpiperidin-4-yl]amino}-1-(2,2,2-trifluoroethyl)-1H-indol-2-yl)prop-2-yn-1-yl]-1H-pyrrole-3-carboxamide]",+ (+ = 0 μM ≤ SC150 < 0.05 μM)
19,COc1cc(S(C)(=O)=O)cc(F)c1NCC#Cc1cc2c(NC3CCN(C)CC3)cccc2n1CC(F)(F)F [Compound 519A],++++ (++++ = 0.2 μM ≤ SC150 < 1 μM)
20,"COc1cc(S(=O)(=O)NC(C)=O)ccc1NCC#Cc1cc2c(N[C@@H]3CCN(C)C[C@@H]3F)cccc2n1CC(F)(F)F [Compound 837A, N-(4-{[3-(4-{[(3S,4R)-3-fluoro-1-methylpiperidin-4-yl]amino}-1-(2,2,2-trifluoroethyl)-1H-indol-2-yl)prop-2-yn-1-yl]amino}-3-methoxybenzenesulfonyl)acetamide]",+ (+ = 0 μM ≤ SC150 < 0.05 μM)
21,"CCC(=O)OCC(CN1CCC(Nc2cccc3c2cc(C#CCNc2ccc(S(N)(=O)=O)cc2OC)n3CC(F)(F)F)CC1)OC(=O)CC (stereo not shown) [Compound 587A, 1-{4-[(2-{3-[(2-methoxy-4-sulfamoylphenyl)amino]prop-1-yn-1-yl}-1-(2,2,2-trifluoroethyl)-1H-indol-4-yl)amino]piperidin-1-yl}-3-(propanoyloxy)propan-2-yl propanoate]",+ (+ = 0 μM ≤ SC150 < 0.05 μM)
22,"COc1cc(S(=O)(=O)N2CCOCC2)ccc1NCC#Cc1cc2c(N[C@H]3CC[C@H](N(C)C)CC3)cccc2n1CC(F)(F)F [Compound 67A, (1R,4R)-N^4-[2-(3-{[2-methoxy-4-(morpholine-4-sulfonyl)phenyl]amino}prop-1-yn-1-yl)-1-(2,2,2-trifluoro-ethyl)-1H-indol-4-yl]-N^1,N^1-dimethyl-cyclohexane-1,4-diamine]",+ (+ = 0 μM ≤ SC150 < 0.05 μM)
